# From patent publication US20110033393A1, “Hydrazone Compounds and Their Use” (priority 2009, published 2011)
# What was measured:
# Beta-TC-6 cells = experiment: Insulin release enhancement in insulinoma cell line Beta-TC-6 (Assay 1); type: cell-based, mouse
# Procedure: Assay I: Insulin release enhancement by TRPM5 inhibitors was tested by the following procedure. Beta-TC-6 cells are an insulin-secreting cell line derived from transgenic mice expressing the large T-antigen of simian virus 40 (SV40) in pancreatic beta-cells as described by Poitout et al., Diabetes, 44:306-313 (1995). The cell line was obtained from ATCC cell bank CAT# CRL-11506 and grown in Dulbecco's Modified Eagle's Medium (DMEM) with 15% fetal bovine serum (FBS), 4 mM glutamine, 4.5 g/L glucose, 110 mg/L sodium pyruvate and 1× penn/strep antibiotic mix in a 37° C. incubator with 5% CO2. Cultures were routinely split 1:2 twice a week with the aid of trypsin.
# The day before the assay 0.15×10^6 Beta-TC-6 cells were plated into each well of 96 well plates (Greiner bio-one V-bottom, Cat#: 651 180). The cells were spun at 1200 rpm for 5 min and cultured overnight. […] Insulin release in the supernatant was assessed using a commercially available ELISA kit (Mercodia Cat#: 10-1149-10) according to the manufacturer's protocol. The data were expressed as pg of insulin per number of cells. […]
# GLUTag cells = experiment: GLP-1 release using GLUTag cells (Assay 1); type: cell-based, mouse
# Procedure: Mouse GLUTag cells are a native intestinal cell line which expresses TRPM5. The cell line was obtained from Dr. Daniel J. Drucker in the Division of Endocrinology, Department of Medicine, at University of Toronto, and grown in Invitrogen Dulbecco's Modified Eagle's Medium (DMEM) high glucose (Cat#: 11995) with 10% fetal bovine serum (FBS) and 1× penn/strep antibiotic mix in a 37° C. incubator with 5% CO2.
# Assay 1: All reagents and media were pre-warmed to room temperature prior to the beginning of the experiment.
# Seeding of Cell Plate: BD 96-well Matrigel-coated plates (Fisher, Cat #: 08-774-166) were rehydrated using 100 μL of plating media (Invitrogen Cat #: 31985) OPTI-Modified Eagle's Medium (MEM) with 10% FBS and 1× penn/strep antibiotic mix and incubated for 30 minutes in a 37° C. incubator and 5% CO2. The rehydration media was aspirated and GLUTag cells were plated at 100 ul per well at a density of 7.5×10^5 cells/ml. The plates were then incubated overnight in a 37° C. incubator and 5% CO2.
# The following protocol utilized the Millipore GLP-1 ELISA Kit (Cat. #: EGLP-35K) to analyze GLP-1 secretion from GLUTag cells in the presence of TRPM5 inhibitors/enhancers and glucose.
# ELISA Assay Day 1: Stock solutions and dilution plates of TRPM5 inhibitors or enhancers were prepared. […]
smiles,measurement,setting,value
"Cc1cc(/C=N/NC(=O)C2CC2c2ccccc2)cc2cccnc12 (racemic) [Example 10, trans-N′-((8-Methylquinolin-6-yl)methylene)-2-phenylcyclopropanecarbohydrazide]",insulin secretion,"Beta-TC-6 cells; Beta-TC-6, in the presence of 0.3 mM glucose",does not occur
same,insulin secretion,"Beta-TC-6 cells; Beta-TC-6, in the presence of 1 mM glucose",dose-dependent increase of insulin secretion
same,GLP-1 secretion,GLUTag cells; in the presence of 0.1 mM glucose,is not observed
same,GLP-1 secretion,GLUTag cells; in the presence of 0.3 mM glucose,dose-dependent increase of GLP-1 secretion
